Among the data in US20070155730A1, “Benzodiazepine And Benzopiperazine Analog Inhibitors Of Histone Deacetylase” (METHYLGENE, INC., priority 2005, published 2007) are IC50 values, retold here.

The assay deals with histone deacetylase (HDAC). Kind of assay: Inhibition of Histone Deacetylase Enzymatic Activity. Type of assay: biochemical. Conditions: substrate Boc-Lys(Ac)-AMC, Fluor-de-Lys developer, 37° C., 20 min; against one or more of HDAC-1 to HDAC-11, SirT1 to SirT7 (isoform not given); read-out: HDAC Inhibitory Activity (IC50). As to the method: The following protocol is used to assay the compounds of the invention. In the assay, the buffer used is 25 mM HEPES, pH 8.0, 137 mM NaCl, 2.7 mM KCl, 1 mM MgCl2 and the substrate is Boc-Lys(Ac)-AMC in a 50 mM stock solution in DMSO. The enzyme stock solution is 4.08 μg/mL in buffer.
The compounds are pre-incubated (2 μl in DMSO diluted to 13 μl in buffer for transfer to assay plate) with enzyme (20 μl of 4.08 μg/mL) for 10 min at room temperature (35 μl pre-incubation volume). The mixture is pre-incubated for 5 min at room temperature. The reaction is started by bringing the temperature to 37° C. and adding 16 μl substrate. Total reaction volume is 50 μl. […] A plate is incubated in the dark for 10 min at room temperature before reading (λEX=360 nm, λEm=470 nm, Cutoff filter at 435 nm).
In the table, “A” indicates inhibitory activity at a concentration of <0.05 μM; “B” indicates inhibitory activity at a concentration >0.05 μM but <0.5 μM, “C” indicates inhibitory activity at >0.5 μM but <2 μM and “D” indicates inhibitory activity at a concentration of >2 μM but <10 μM.

One may read the IC50 as the concentration needed to halve the response being measured. For `CC(C)[C@H]1C(=O)Nc2cc(C(=O)NO)ccc2N1S(=O)(=O)c1cccc2ccccc12` [Compound 18f], the IC50 was in the range of 500 to 2000 nM.
Next, `CC(C)[C@@H]1Nc2ccc(NC(=O)CCCCCCC(=O)Nc3ccccc3N)cc2NC1=O` [Compound 23a, N1-(2-Aminophenyl)-N8—((S)-1,2,3,4-tetrahydro-2-isopropyl-3-oxoquinoxalin-6-yl)octanediamide]: 2000 to 10000 nM.
Next, `CC(C)[C@@H]1Nc2ccc(NC(=O)CCCCCCC(=O)NO)cc2NC1=O` [Compound 24a, N1—((S)-1,2,3,4-Tetrahydro-2-isopropyl-3-oxoquinoxalin-6-yl)-N8-hydroxyoctanediamide]: 50 to 500 nM; `CC(C)[C@H]1Nc2ccc(NC(=O)CCCCCCC(=O)NO)cc2NC1=O` [Compound 24e, N1—((R)-1,2,3,4-Tetrahydro-2-isopropyl-3-oxoquinoxalin-6-yl)-N8-hydroxyoctanediamide]: under 50 nM.
For the compound `O=C(CCCCCCC(=O)Nc1ccc2c(c1)NC(=O)[C@@H](Cc1c[nH]c3ccccc13)N2)NO` [Compound 24f, N1—((R)-2-((1H-Indol-3-yl)methyl)-1,2,3,4-tetrahydro-3-oxoquinoxalin-6-yl)-N8-hydroxyoctanediamide], the IC50 was under 50 nM.
Next, `COc1ccc(CN2c3ccc(NC(=O)CCCCCCC(=O)NO)cc3NC(=O)[C@H]2C(C)C)cc1` [Compound 26e, N1—((R)-1-(4-Methoxybenzyl)-1,2,3,4-tetrahydro-2-isopropyl-3-oxoquinoxalin-6-yl)-N8-hydroxyoctanediamide]: 50 to 500 nM.
Turning to `CC(C)[C@@H]1Nc2ccc(NC(=O)CCCCCCC(=O)c3ncco3)cc2NC1=O` [Compound 29a, N—((S)-1,2,3,4-Tetrahydro-2-isopropyl-3-oxoquinoxalin-6-yl)-8-(oxazol-2-yl)-8-oxooctanamide], the IC50 lay in the range of 50 to 500 nM.
Then `COc1ccc(CN2c3ccccc3NC(=O)[C@H]2CCC(=O)CCC(=O)NO)cc1` [Compound 43, 6-((R)-1-(4-methoxybenzyl)-1,2,3,4-tetrahydro-3-oxoquinoxalin-2-yl)-N-hydroxy-4-oxy-hexanamide], with 2000 to 10000 nM; and `COc1ccc(CN2c3ccccc3NC(=O)C2CCCCCC(=O)NO)cc1` (stereo not drawn) [Compound 47a, 6-(1-(4-methoxybenzyl)-1,2,3,4-tetrahydro-3-oxoquinoxalin-2-yl)-N-hydroxyhexanamide], with 50 to 500 nM; and `COc1ccc(CN2c3ccccc3NC(=O)C2CCCCCC(=O)Nc2ccccc2N)cc1` (stereo not drawn) [Compound 47b, 6-(1-(4-methoxybenzyl)-1,2,3,4-tetrahydro-3-oxoquinoxalin-2-yl)-N-(2-aminophenyl)hexanamide], with 2000 to 10000 nM.
Turning to `COc1ccc(CN2c3ccccc3NC(=O)C2CCCCCC(=O)Nc2cc(-c3cccs3)ccc2N)cc1` (stereo not drawn) [Compound 49, 6-(1-(4-methoxybenzyl)-1,2,3,4-tetrahydro-3-oxoquinoxalin-2-yl)-N-(2-amino-5-(thiophen-2-yl)phenyl)hexanamide], the IC50 is 50 to 500 nM.
Then `O=C(NO)c1ccc(CN2c3ccccc3NC(=O)[C@@H]2Cc2cccs2)cc1` [Compound 54a1, 4-(((S)-2,3-Dihydro-2-oxo-3-((thiophen-2-yl)methyl)quinoxalin-4(1H)-yl)methyl)-N-hydroxybenzamide], with 50 to 500 nM; and `O=C(NO)c1ccc(CN2c3ccccc3NC(=O)[C@H]2Cc2cccs2)cc1` [Compound 54a2, 4-(((R)-2,3-Dihydro-2-oxo-3-((thiophen-2-yl)methyl)quinoxalin-4(1H)-yl)methyl)-N-hydroxybenzamide], with under 50 nM.
With `O=C1CN(Cc2ccc(C(=O)NO)cc2)c2ccccc2N1` [Compound 54b1, N-hydroxy-4-((3-oxo-3,4-dihydroquinoxalin-1(2H)-yl)methyl)-benzamide], the IC50 is under 50 nM.
Take `O=C(NO)c1ccc(CN2c3ccccc3NC(=O)[C@H]2Cc2c[nH]c3ccccc23)cc1` [Compound 54b2, (R)-4-((2-((1H-indol-3-yl)methyl)-3-oxo-3,4-dihydroquinoxalin-1(2H)-yl)methyl)-N-hydroxybenzamide]: the IC50 was under 50 nM.
In the case of `O=C(NO)c1ccc(CN2c3ccccc3NC(=O)[C@@H]2Cc2c[nH]c3ccccc23)cc1` [Compound 54b3, (S)-4-((2-((1H-indol-3-yl)methyl)-3-oxo-3,4-dihydroquinoxalin-1(2H)-yl)methyl)-N-hydroxybenzamide], the IC50 was under 50 nM.
Consider `O=C(NO)c1ccc(CN2c3ccccc3NC(=O)[C@@H]2Cc2ccccc2)cc1` [Compound 54b4, (S)-4-((2-benzyl-3-oxo-3,4-dihydroquinoxalin-1(2H)-yl)methyl)-N-hydroxybenzamide], for which the IC50 was under 50 nM.
As to `O=C(NO)c1ccc(CN2c3ccccc3NC(=O)[C@H]2Cc2ccccc2)cc1` [Compound 54b5, (R)-4-((2-benzyl-3-oxo-3,4-dihydroquinoxalin-1(2H)-yl)methyl)-N-hydroxybenzamide], the half-inhibitory concentration (IC50) was under 50 nM.
Consider `O=C(NO)c1ccc(CN2c3ccccc3NC(=O)[C@H]2CCc2ccccc2)cc1` [Compound 54b7, (R)—N-hydroxy-4-((3-oxo-2-phenethyl-3,4-dihydroquinoxalin-1(2H)-yl)methyl)benzamide], for which the IC50 was under 50 nM.
Then `O=C(NO)c1ccc(CN2c3ccccc3NC(=O)[C@H]2CC2CCCCC2)cc1` [Compound 54b8, (R)-4-((2-(cyclohexylmethyl)-3-oxo-3,4-dihydroquinoxalin-1(2H)-yl)methyl)-N-hydroxybenzamide], with 50 to 500 nM.
Then `CC(C)(C)OC(=O)NCCCC[C@@H]1C(=O)Nc2ccccc2N1Cc1ccc(C(=O)NO)cc1` [Compound 54b9, (R)-tert-butyl 4-(1-(4-(hydroxycarbamoyl)benzyl)-3-oxo-1,2,3,4-tetrahydroquinoxalin-2-yl)butylcarbamate], with under 50 nM.
As to `O=C(NO)c1ccc(CN2c3ccccc3NC(=O)[C@H]2Cc2ccc3ccccc3c2)cc1` [Compound 54b10, (R)—N-hydroxy-4-((2-(naphthalen-2-ylmethyl)-3-oxo-3,4-dihydroquinoxalin-1(2H)-yl)methyl)benzamide], the IC50 is under 50 nM.
Turning to `CC(C)(C)Oc1ccc(C[C@@H]2C(=O)Nc3ccccc3N2Cc2ccc(C(=O)NO)cc2)cc1` [Compound 54b11, (R)-4-((2-(4-tert-butoxybenzyl)-3-oxo-3,4-dihydroquinoxalin-1(2H)-yl)methyl)-N-hydroxybenzamide], the IC50 is under 50 nM.
On to `CC(C)(C)OC(=O)CC[C@@H]1C(=O)Nc2ccccc2N1Cc1ccc(C(=O)NO)cc1` [Compound 54b12, (R)-tert-butyl 3-(1-(4-(hydroxycarbamoyl)benzyl)-3-oxo-1,2,3,4-tetrahydroquinoxalin-2-yl)propanoate], for which the IC50 is under 50 nM.
Take `O=C(NO)c1ccc(CN2c3ccccc3NC(=O)[C@H]2Cc2csc3ccccc23)cc1` [Compound 54b13, (R)-4-((2-(benzo[b]thiophen-3-ylmethyl)-3-oxo-3,4-dihydroquinoxalin-1(2H)-yl)methyl)-N-hydroxybenzamide]: the IC50 is under 50 nM.
Next, `O=C(NO)c1ccc(CN2c3ccccc3NC(=O)[C@@H]2Cc2csc3ccccc23)cc1` [Compound 54b14, (S)-4-((2-(benzo[b]thiophen-3-ylmethyl)-3-oxo-3,4-dihydroquinoxalin-1(2H)-yl)methyl)-N-hydroxybenzamide]: 50 to 500 nM.
Next, `O=C(NO)c1ccc(CN2c3ccccc3NC(=O)[C@H]2Cc2ccc(F)cc2)cc1` [Compound 54b15, (R)-4-((2-(4-fluorobenzyl)-3-oxo-3,4-dihydroquinoxalin-1(2H)-yl)methyl)-N-hydroxybenzamide]: under 50 nM.
Next, `O=C(NO)c1ccc(CN2c3ccccc3NC(=O)[C@H]2Cc2ccc(C(F)(F)F)cc2)cc1` [Compound 54b17, (R)-4-((2-(4-trifluoromethylbenzyl)-3-oxo-3,4-dihydroquinoxalin-1(2H)-yl)methyl)-N-hydroxybenzamide]: 50 to 500 nM; `O=C(NO)c1ccc(CN2c3ccccc3NC(=O)[C@H]2Cc2cccc(C(F)(F)F)c2)cc1` [Compound 54b19, (R)—N-hydroxy-4-((2-(3-(trifluoromethyl)benzyl)-3-oxo-3,4-dihydroquinoxalin-1(2H)-yl)methyl)benzamide]: 50 to 500 nM; `O=C(NO)c1ccc(CN2c3ccccc3NC(=O)[C@H]2Cc2ccoc2)cc1` [Compound 54b20, (R)-4-((2-(furan-3-ylmethyl)-3-oxo-3,4-dihydroquinoxalin-1(2H)-yl)methyl)-N-hydroxybenzamide]: under 50 nM.
For `O=C(NO)c1ccc(CN2c3ccccc3NC(=O)[C@H]2Cc2cccnc2)cc1` [Compound 54b21, (R)—N-hydroxy-4-((3-oxo-2-(pyridin-3-ylmethyl)-3,4-dihydroquinoxalin-1(2H)-yl)methyl)benzamide], the IC50 is under 50 nM.
Then `Nc1ccccc1NC(=O)c1ccc(CN2c3ccccc3NC(=O)[C@@H]2Cc2cccs2)cc1` [Compound 54c, (S)—N-(2-aminophenyl)-4-((3-oxo-2-(thiophen-2-ylmethyl)-3,4-dihydroquinoxalin-1(2H)-yl)methyl)benzamide], with 50 to 500 nM.
Next, `O=C(NO)c1ccc(CN2c3ccccc3NC(=O)[C@H]2Cc2cccs2)cc1` [Compound 56a, 4-(((R)-2,3-Dihydro-2-oxo-3-((thiophen-2-yl)methyl)quinoxalin-4(1H)-yl)methyl)-N-hydroxybenzamide]: 500 to 2000 nM.
